This is an account of results in patent US8575135B2 (Gilead Sciences, Inc., priority 2011, dated 2013).

Like-named read-outs stand apart in the source and are kept apart here.

What all share (assay): microbe, parasite or virus in culture
Holding throughout (details): Hepatitis C virus

In experiment [1] the test system is NS5A chimeric genotype 1b Con1 replicon with genotype 4a ED43 strain NS5A gene. It is filed as cell-based, HCV.
Experiment [2] has as its system NS5A chimeric genotype 2a JFH-1 replicon with genotype 2b MD2b-1 strain NS5A gene (M31 present). It is filed as cell-based, HCV. The method in brief: (§1)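 Con1-based 3a and 4a chimeras carried a Pi-RLuc reporter and were transiently transfected into Huh-Lunet cells; the JFH-1-based 2b chimera (RLuc-Neo) was used transiently or as stable replicon cells.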
For experiment [3], the system named is NS5A chimeric genotype 1b Con1 replicon with genotype 3a S52 strain NS5A gene. Format: cell-based, HCV. The method in brief: as §1
The test system of experiment [4] is NS5A chimeric genotype 2a JFH-1 replicon with genotype 2a J6 strain NS5A gene (M31 present). It is filed as cell-based, HCV.
Experiment [5] has as its system stable HCV 1a RLuc replicon cells (genotype 1a H77 replicon). Format: cell-based.
The subject of experiment [6] is 1a Pi-Rluc replicon with Q30R in genotype 1a NS5A. Format: cell-based, HCV. As to the method: Antiviral potency (EC50) was determined using a Renilla luciferase (RLuc)-based HCV replicon reporter assay. […] To perform the assay for genotype 2a (with M31 present in NS5A) or 2b, NS5A chimeric genotype 2a JFH-1 replicons that encodes a RLuc-Neo reporter and either genotype 2a J6 strain NS5A gene or genotype 2b MD2b-1 strain NS5A gene (both with M31 present) respectively, were either transiently transfected (t) into Huh-Lunet cells or were established as stably replicating replicon cells (s) is provided. Either cells were dispensed into 384-well plates for EC50 assays. To perform the assay for genotype 3 and 4, NS5A chimeric genotype 1b Con1 replicons that encodes a Pi-RLuc reporter and either genotype 3a S52 strain NS5A gene or genotype 4a ED43 strain NS5A gene respectively, were transiently transfected (t) into Huh-Lunet cells, which were subsequently dispensed into 384-well plates. Compounds were dissolved in DMSO at a concentration of 10 mM and diluted in DMSO either manually or using an automated pipeting instrument. Serially 3-fold diluted compounds were either manually mixed with cell culture media and added to the seeded cells or directly added to the cells using an automated instrument. […] 72 hours later, cells were lysed and Renilla luciferase activity quantified as recommended by the manufacturer (Promega-Madison, Wis.). Non-linear regression was performed to calculate EC50 values.
To determine the antiviral potency (EC50) against resistance mutants, resistance mutations, including M28T, Q30R, Q30H, L31M, and Y93C in genotype 1a NS5A and Y93H in genotype 1b NS5A, were introduced individually into either 1a Pi-Rluc or 1b Pi-Rluc replicons by site directed mutagenesis. Replicon RNA of each resistant mutant was transiently transfected into Huh-7-derived cured-51 cells and antiviral potency was determined on these transfected cells as described above.

The subject of experiment [7] is stable HCV 2a JFH-1 Rluc replicon cells (L31 present in NS5A). It is filed as cell-based.

For `COC[C@H]1C[C@@H](c2nc3ccc4cc5c(cc4c3[nH]2)OCc2cc(-c3cnc([C@@H]4CCCN4C(=O)[C@@H](NC(=O)OC)C(C)C)[nH]3)ccc2-5)N(C(=O)[C@@H](NC(=O)OC)C(C)C)C1` [Compound 495], the EC50 in experiment [1] (read-out: 4a) was under 1 nM; in experiment [1] (read-out: 4a (s) (nM)) it was 0.014 nM; in experiment [1] (read-out: 4a (t) (nM)), 0.014 nM; in experiment [2] (read-out: 2b), under 1 nM; in experiment [2] (read-out: 2b (s) (nM)), 0.541 nM; in experiment [2] (read-out: 2b (t) (nM)) it was 0.135 nM. For the same compound, the EC50 in experiment [3] (read-out: 3a) was under 1 nM; in experiment [3] (read-out: 3a (nM)), 0.024 nM; in experiment [4] (read-out: 2a J6), under 1 nM; in experiment [4] (read-out: 2a J6 (s) (nM)) it was 1.02 nM; in experiment [4] (read-out: 2a Jb (t) (nM)), 0.28 nM; in experiment [5] (read-out: 1a), under 1 nM. Besides, the EC50 was 0.021 nM in experiment [5] (read-out: 1a (nM)); under 1 nM in experiment [6] (read-out: 1a Q30R); 0.201 nM in experiment [6] (read-out: 1a Q30R (nM)); under 1 nM in experiment [7] (read-out: 2a JFH); 0.008 nM in experiment [7] (read-out: 2a JFH (nM)).

As to `COC(=O)N[C@H](C(=O)N1CCC[C@H]1c1nc2ccc3cc4c(cc3c2[nH]1)OCc1cc(-c2cnc([C@@H]3CCCN3C(=O)[C@H](NC(=O)C3CC3)c3ccccc3)[nH]2)ccc1-4)C(C)C` [Compound 498], the EC50 in experiment [1] (read-out: 4a) was under 1 nM; in experiment [1] (read-out: 4a (s) (nM)) it was 0.004 nM; in experiment [1] (read-out: 4a (t) (nM)), 0.011 nM; in experiment [2] (read-out: 2b), under 1 nM; in experiment [2] (read-out: 2b (s) (nM)), 0.013 nM; in experiment [2] (read-out: 2b (t) (nM)) it was 0.01 nM. In addition, the EC50 is under 1 nM in experiment [3] (read-out: 3a); 0.005 nM in experiment [3] (read-out: 3a (nM)); under 1 nM in experiment [4] (read-out: 2a J6); 0.039 nM in experiment [4] (read-out: 2a J6 (s) (nM)); 0.012 nM in experiment [4] (read-out: 2a Jb (t) (nM)); under 1 nM in experiment [5] (read-out: 1a). The EC50 in experiment [5] (read-out: 1a (nM)) is 0.03 nM; in experiment [6] (read-out: 1a Q30R), under 1 nM; in experiment [6] (read-out: 1a Q30R (nM)) it was 0.04 nM; in experiment [7] (read-out: 2a JFH), under 1 nM; in experiment [7] (read-out: 2a JFH (nM)) it was 0.004 nM.

Consider `COC(=O)N[C@H](C(=O)N1CCC[C@H]1c1ncc(-c2ccc3c(c2)COc2cc4c(ccc5nc([C@@H]6C[C@H](C)CN6C(=O)[C@@H](NC(=O)OC)C(C)C)[nH]c54)cc2-3)[nH]1)C(C)C` [Compound 526], for which the EC50 in experiment [1] (read-out: 4a) is under 1 nM; in experiment [1] (read-out: 4a (s) (nM)), 0.011 nM; in experiment [1] (read-out: 4a (t) (nM)), 0.011 nM; in experiment [2] (read-out: 2b) it was under 1 nM; in experiment [2] (read-out: 2b (s) (nM)), 0.404 nM; in experiment [2] (read-out: 2b (t) (nM)), 0.132 nM. Moreover, the EC50 in experiment [3] (read-out: 3a) was under 1 nM; in experiment [3] (read-out: 3a (nM)), 0.018 nM; in experiment [4] (read-out: 2a J6) it was under 1 nM; in experiment [4] (read-out: 2a J6 (s) (nM)), 1.64 nM; in experiment [4] (read-out: 2a Jb (t) (nM)), 0.443 nM; in experiment [5] (read-out: 1a) it was under 1 nM. Besides, the EC50 in experiment [5] (read-out: 1a (nM)) is 0.011 nM; in experiment [6] (read-out: 1a Q30R), under 1 nM; in experiment [6] (read-out: 1a Q30R (nM)), 0.095 nM; in experiment [7] (read-out: 2a JFH), under 1 nM; in experiment [7] (read-out: 2a JFH (nM)), 0.007 nM.

Consider `COC(=O)N[C@H](C(=O)N1[C@@H]2C[C@@H]2C[C@H]1c1nc2ccc3cc4c(cc3c2[nH]1)OCc1cc(-c2cnc([C@@H]3CCCN3C(=O)[C@H](NC(=O)OC)c3ccccc3)[nH]2)ccc1-4)C(C)C` [Compound 536], for which the EC50 in experiment [1] (read-out: 4a) was under 1 nM; in experiment [1] (read-out: 4a (s) (nM)), 0.01 nM; in experiment [1] (read-out: 4a (t) (nM)), 0.005 nM; in experiment [2] (read-out: 2b), under 1 nM; in experiment [2] (read-out: 2b (s) (nM)), 0.037 nM; in experiment [2] (read-out: 2b (t) (nM)) it was 0.011 nM. For the same compound, the EC50 in experiment [3] (read-out: 3a) was under 1 nM; in experiment [3] (read-out: 3a (nM)), 0.009 nM; in experiment [4] (read-out: 2a J6), under 1 nM; in experiment [4] (read-out: 2a J6 (s) (nM)), 0.154 nM; in experiment [4] (read-out: 2a Jb (t) (nM)), 0.04 nM; in experiment [5] (read-out: 1a) it was under 1 nM. Also, the EC50 is 0.008 nM in experiment [5] (read-out: 1a (nM)); under 1 nM in experiment [6] (read-out: 1a Q30R); 0.048 nM in experiment [6] (read-out: 1a Q30R (nM)); under 1 nM in experiment [7] (read-out: 2a JFH); 0.004 nM in experiment [7] (read-out: 2a JFH (nM)).
